Like-named read-outs stand apart in the source and are kept apart here.
Columns and labels:
FLT3 = target: T1, FLT3 (Homo sapiens, UniProt P36888); assay: Competition binding assay, FLT3 Kd
T1 construct: made in house
T1 sequence (P36888 27-993): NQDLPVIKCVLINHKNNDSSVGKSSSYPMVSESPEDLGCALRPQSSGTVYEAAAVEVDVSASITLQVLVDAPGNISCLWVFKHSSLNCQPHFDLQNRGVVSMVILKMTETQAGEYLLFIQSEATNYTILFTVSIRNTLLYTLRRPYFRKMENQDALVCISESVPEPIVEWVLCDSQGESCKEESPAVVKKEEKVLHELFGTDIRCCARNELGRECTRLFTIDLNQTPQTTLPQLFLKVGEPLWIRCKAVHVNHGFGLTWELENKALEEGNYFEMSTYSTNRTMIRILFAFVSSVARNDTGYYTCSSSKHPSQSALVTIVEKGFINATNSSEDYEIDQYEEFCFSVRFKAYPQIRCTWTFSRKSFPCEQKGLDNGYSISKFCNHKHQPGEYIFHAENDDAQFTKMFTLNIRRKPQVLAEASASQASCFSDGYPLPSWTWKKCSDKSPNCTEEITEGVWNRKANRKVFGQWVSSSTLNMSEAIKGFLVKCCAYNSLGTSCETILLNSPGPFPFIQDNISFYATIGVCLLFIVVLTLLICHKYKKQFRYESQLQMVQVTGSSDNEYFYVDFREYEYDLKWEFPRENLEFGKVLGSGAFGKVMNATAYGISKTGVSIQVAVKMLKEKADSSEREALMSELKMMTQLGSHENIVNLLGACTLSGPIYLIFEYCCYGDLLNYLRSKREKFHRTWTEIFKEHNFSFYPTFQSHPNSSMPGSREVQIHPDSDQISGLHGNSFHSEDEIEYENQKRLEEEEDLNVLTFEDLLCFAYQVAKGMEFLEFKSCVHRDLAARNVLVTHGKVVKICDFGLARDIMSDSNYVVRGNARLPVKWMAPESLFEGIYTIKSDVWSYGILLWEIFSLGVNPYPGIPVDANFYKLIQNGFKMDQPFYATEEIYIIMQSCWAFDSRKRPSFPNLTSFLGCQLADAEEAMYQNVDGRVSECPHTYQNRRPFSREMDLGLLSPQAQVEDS
Summary of the method: (§1)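 Kinases as T7-phage fusions or HEK-293-expressed DNA-tagged constructs competed against immobilized biotinylated ligand on streptavidin beads, 1 h at room temperature in binding buffer. Bound kinase eluted and quantified by qPCR; Kd from eleven-point threefold dilution series.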

PDGFRβ = target: T2, PDGFRβ (Homo sapiens, UniProt P09619); assay: Competition binding assay, PDGFRβ Kd
T2 construct: made in house
Summary of the method: as §1

M-NFS-60 cells = assay: M-NFS-60 cell proliferation assay (Alamar Blue); assay type: cell-based, mouse; settings: Mus musculus, read-out: CSF1R M-NFS-60 CTB:IC50
Summary of the method: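 Mouse M-NFS-60 cells growing on 20 ng/mL M-CSF in RPMI/10% FBS were exposed to compounds (9 half-log concentrations, 0.5% DMSO) for 72 h at 37 °C. Viability read by Alamar Blue fluorescence (ex 560/em 590 nm, 3 h). IC50 = 50% proliferation inhibition versus control, mean of duplicates.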

KIT = target: T3, KIT (Homo sapiens, UniProt P10721); assay: Competition binding assay, KIT Kd
T3 construct: made in house
Summary of the method: as §1

CSF1R = CSF1R (Homo sapiens, UniProt P07333); assay: Competition binding assay, CSF1R Kd; set-up: made in house
Summary of the method: as §1

[1] = target: kinase panel containing either 386 or 392 distinct kinases; assay: Kinase selectivity score S10 from competition binding panel
Protocol: Competition binding assays used herein were developed, validated and performed as described in Fabian et al., Nature Biotechnology 2005, 23, 329-336. Kinases were produced as fusions to T7 phage (See, Fabian et al. or WO04/015142) or alternatively, the kinases were expressed in HEK-293 cells and subsequently tagged with DNA for PCR detection (See, WO08/005310). For the binding assays, streptavidin-coated magnetic beads were treated with biotinylated affinity ligands for 30 min at room temperature to generate affinity resins. The liganded beads were blocked with excess biotin and washed with blocking buffer (SeaBlock (Pierce), 1% BSA, 0.05% Tween 20, 1 mM DTT) to remove unbound ligand and to reduce non-specific binding. Binding reactions were assembled by combining kinase, liganded affinity beads, and test compounds in 1× binding buffer (20% SeaBlock, 0.17×PBS, 0.05% Tween 20, 6 mM DTT). Test compounds were prepared as 100× stocks in DMSO and diluted into the aqueous environment. Kds were determined using an eleven point threefold serial dilutions. DMSO or control compounds were was added to control assays lacking a test compound. Primary screen assays were performed in polypropylene 384-well plates in a final volume of 20-40 μL, while Kd determinations were performed in polystyrene 96-well plates in a final volume of 135 μL. The assay plates were incubated at room temperature with shaking for 1 hour to allow the binding reactions to reach equilibrium, and the affinity beads were washed extensively with wash buffer (1×PBS, 0.05% Tween 20) to remove unbound protein. The beads were then resuspended in elution buffer (1×PBS, 0.05% Tween […] non-biotinylated affinity ligand) and incubated at room temperature with shaking for 30 min. The kinase concentration in the eluates was measured by quantitative PCR.
A selectivity score (S10) is a quantitative measure of selectivity of a compound against a panel of kinases. An S10 was calculated for a compound by dividing the number of kinases found to have a percent of control (DMSO) less than 10 by the total number of distinct kinases tested (excluding mutant variants). Percent of control (POC) is calculated by subtracting the signal of the control compound (POC=0) from the signal of the test compound and dividing the outcome by the signal of DMSO (POC=100) minus the signal of the control compound. For the compounds disclosed herein, S10 scores were obtained by testing the compounds at 10 μM concentration in a kinase panel containing either 386 or 392 distinct kinases.

[2] = 72 hours incubation, M-CSF 20 ng/mL
[3] = compounds at 10 μM, 386 or 392 distinct kinases
[4] = 10 μM, panel of 386 or 392 distinct kinases

T3 sequence (P10721 26-976): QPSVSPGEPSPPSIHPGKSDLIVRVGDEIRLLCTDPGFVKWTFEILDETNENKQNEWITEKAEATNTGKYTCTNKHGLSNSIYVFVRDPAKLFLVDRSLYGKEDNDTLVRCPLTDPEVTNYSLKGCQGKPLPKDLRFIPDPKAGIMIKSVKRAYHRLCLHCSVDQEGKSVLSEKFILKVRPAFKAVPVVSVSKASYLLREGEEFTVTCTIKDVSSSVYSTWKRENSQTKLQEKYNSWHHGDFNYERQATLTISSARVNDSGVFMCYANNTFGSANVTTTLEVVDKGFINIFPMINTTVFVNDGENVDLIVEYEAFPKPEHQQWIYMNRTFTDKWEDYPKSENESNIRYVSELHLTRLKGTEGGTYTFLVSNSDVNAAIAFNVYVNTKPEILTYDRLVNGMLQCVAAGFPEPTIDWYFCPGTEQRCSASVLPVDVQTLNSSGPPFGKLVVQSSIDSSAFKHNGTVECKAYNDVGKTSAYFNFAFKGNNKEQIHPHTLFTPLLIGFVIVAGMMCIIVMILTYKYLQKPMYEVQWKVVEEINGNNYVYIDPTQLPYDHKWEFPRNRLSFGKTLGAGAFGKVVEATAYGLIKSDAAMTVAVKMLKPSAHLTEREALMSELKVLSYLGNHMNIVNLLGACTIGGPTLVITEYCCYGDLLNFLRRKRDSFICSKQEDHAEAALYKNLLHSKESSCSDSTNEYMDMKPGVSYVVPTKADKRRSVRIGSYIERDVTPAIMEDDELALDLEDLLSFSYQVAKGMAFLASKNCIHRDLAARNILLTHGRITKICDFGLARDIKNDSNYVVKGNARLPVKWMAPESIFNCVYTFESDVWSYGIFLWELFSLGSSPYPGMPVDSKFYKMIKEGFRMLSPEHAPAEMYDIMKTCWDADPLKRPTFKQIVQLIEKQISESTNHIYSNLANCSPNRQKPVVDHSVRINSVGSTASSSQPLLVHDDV
T2 sequence (P09619 33-1106): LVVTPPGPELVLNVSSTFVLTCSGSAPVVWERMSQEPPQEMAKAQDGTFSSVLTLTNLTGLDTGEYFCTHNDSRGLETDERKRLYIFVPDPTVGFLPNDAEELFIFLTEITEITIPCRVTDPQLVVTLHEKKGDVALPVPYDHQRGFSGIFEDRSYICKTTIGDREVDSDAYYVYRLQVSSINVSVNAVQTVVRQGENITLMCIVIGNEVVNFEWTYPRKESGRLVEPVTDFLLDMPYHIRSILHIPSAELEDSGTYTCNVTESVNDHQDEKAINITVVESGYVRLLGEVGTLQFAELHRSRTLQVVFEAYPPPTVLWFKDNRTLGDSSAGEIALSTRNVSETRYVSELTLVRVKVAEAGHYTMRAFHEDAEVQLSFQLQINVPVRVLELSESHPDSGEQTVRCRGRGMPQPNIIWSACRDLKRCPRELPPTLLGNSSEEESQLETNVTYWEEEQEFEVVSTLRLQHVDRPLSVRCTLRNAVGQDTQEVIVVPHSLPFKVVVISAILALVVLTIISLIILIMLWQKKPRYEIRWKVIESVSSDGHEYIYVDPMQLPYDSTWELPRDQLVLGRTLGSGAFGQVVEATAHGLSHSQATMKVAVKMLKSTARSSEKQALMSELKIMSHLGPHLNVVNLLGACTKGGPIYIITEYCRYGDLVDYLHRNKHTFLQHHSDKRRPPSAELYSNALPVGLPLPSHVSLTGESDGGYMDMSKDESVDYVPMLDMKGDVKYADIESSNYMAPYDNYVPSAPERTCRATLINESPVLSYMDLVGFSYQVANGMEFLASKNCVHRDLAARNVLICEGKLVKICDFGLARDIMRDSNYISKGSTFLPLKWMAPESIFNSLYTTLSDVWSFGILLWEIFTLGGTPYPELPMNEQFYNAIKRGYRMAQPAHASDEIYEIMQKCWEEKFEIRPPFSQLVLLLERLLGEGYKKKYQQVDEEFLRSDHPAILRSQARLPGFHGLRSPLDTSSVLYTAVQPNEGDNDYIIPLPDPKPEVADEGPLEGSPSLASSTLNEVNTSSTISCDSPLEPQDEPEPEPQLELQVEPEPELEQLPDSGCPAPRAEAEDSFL
Chain of CSF1R (P07333 20-972): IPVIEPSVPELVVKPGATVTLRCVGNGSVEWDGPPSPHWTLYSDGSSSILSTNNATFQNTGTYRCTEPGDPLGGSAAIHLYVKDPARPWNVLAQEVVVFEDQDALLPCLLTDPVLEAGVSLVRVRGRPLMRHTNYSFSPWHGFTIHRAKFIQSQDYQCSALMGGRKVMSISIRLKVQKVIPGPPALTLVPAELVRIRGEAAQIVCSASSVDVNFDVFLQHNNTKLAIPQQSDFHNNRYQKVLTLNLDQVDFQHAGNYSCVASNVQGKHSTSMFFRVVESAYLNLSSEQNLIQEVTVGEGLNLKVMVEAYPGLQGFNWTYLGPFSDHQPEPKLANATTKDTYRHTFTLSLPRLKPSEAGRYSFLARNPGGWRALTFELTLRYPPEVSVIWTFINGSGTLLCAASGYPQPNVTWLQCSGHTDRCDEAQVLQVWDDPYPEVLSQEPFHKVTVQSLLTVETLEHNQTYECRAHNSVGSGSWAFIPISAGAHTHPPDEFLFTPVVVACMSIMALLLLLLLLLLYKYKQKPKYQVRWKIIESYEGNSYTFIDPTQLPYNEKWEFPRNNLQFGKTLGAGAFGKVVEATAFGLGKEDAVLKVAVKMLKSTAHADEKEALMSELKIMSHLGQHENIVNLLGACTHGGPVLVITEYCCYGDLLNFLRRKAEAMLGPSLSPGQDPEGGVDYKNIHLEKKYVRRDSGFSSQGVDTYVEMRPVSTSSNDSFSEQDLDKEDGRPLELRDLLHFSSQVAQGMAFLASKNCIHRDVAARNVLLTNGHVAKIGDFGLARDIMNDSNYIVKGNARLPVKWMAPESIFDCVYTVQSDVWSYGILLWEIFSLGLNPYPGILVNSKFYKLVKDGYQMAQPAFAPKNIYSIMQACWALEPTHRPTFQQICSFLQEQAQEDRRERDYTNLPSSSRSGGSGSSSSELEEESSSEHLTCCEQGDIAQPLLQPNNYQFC

Row | Kd (FLT3) | Kd (PDGFRβ) | Kd (KIT) | Kd (CSF1R) | Kinase specificity S(10) [1, 3] | Kd (FLT3; competition binding) | Kd (PDGFRβ; competition binding) | Kd (KIT; competition binding) | Kd (CSF1R; competition binding) | Kinase specificity S(10) [1, 4] | Structure (SMILES) | IC50 (M-NFS-60 cells; [2]) | IC50 (M-NFS-60 cells; M-NFS-60 cell proliferation)
1 | ≤ 200 nM | ≤ 50 nM | ≤ 100 nM | ≤ 5 nM | C (C>0.02) |  |  |  |  |  | Cn1cc(-c2cnc3c(c2)ncn3Cc2ccc3nc(N[C@@H]4CCCC[C@H]4O)sc3c2)cn1 [Example 39, (1R,2R)-2-((6-((6-(1-methyl-1H-pyrazol-4-yl)-3H-imidazo[4,5-b]pyridin-3-yl)methyl)benzo[d]thiazol-2-yl)amino)cyclohexanol] | ≤ 50 nM | 
2 |  |  |  |  |  | 200 to 1000 nM | 50 to 500 nM | 100 to 500 nM | 5 to 20 nM | A (A≤0.01) | O[C@@H]1CCCC[C@H]1Nc1nc2ccc(Cn3cnc4cc(N5CCOCC5)ccc43)cc2s1 [Example 209, (1R,2R)-2-((6-((5-morpholino-1H-benzo[d]imidazol-1-yl)methyl)benzo[d]thiazol-2-yl)amino)cyclohexanol] |  | 50 to 400 nM
3 | 1000 to 5000 nM | 50 to 500 nM | 100 to 500 nM | ≤ 5 nM | B (0.01<B≤0.02) |  |  |  |  |  | CS(=O)(=O)O.O[C@@H]1CCCC[C@H]1Nc1nc2ccc(Cn3cnc4cccnc43)cc2s1 [Example 3, (1R,2R)-2-((6-((3H-imidazo[4,5-b]pyridin-3-yl)methyl)benzo[d]thiazol-2-yl)amino)cyclohexanol methanesulfonic acid] | 50 to 400 nM | 
4 | 200 to 1000 nM | ≤ 50 nM | ≤ 100 nM | ≤ 5 nM | B (0.01<B≤0.02) |  |  |  |  |  | O[C@@H]1CCCC[C@H]1Nc1nc2ccc(Cn3cnc4cc(C5CC5)cnc43)cc2s1 [Example 45, (1R,2R)-2-((6-((6-cyclopropyl-3H-imidazo[4,5-b]pyridin-3-yl)methyl)benzo[d]thiazol-2-yl)amino)cyclohexanol] | ≤ 50 nM | 
5 | 200 to 1000 nM | ≤ 50 nM | ≤ 100 nM | 5 to 20 nM | B (0.01<B≤0.02) |  |  |  |  |  | O[C@@H]1CCCC[C@H]1Nc1nc2ccc(Cn3cnc4cc(N5CCOCC5)cnc43)cc2s1 [Example 97, (1R,2R)-2-((6-((6-morpholino-3H-imidazo[4,5-b]pyridin-3-yl)methyl)benzo[d]thiazol-2-yl)amino)cyclohexanol] | ≤ 50 nM | 
6 | ≤ 200 nM | ≤ 50 nM | ≤ 100 nM | 5 to 20 nM | C (C>0.02) |  |  |  |  |  | OC[C@@H](Nc1nc2ccc(Cn3cnc4cccnc43)cc2s1)C1CCCCC1 [Example 63, (S)-2-((6-((3H-imidazo[4,5-b]pyridin-3-yl)methyl)benzo[d]thiazol-2-yl)amino)-2-cyclohexylethanol] | 50 to 400 nM | 
7 | 1000 to 5000 nM | 500 to 2000 nM | > 2000 nM | > 50 nM | A (A≤0.01) |  |  |  |  |  | CC(=O)NCc1cnc2c(c1)ncn2Cc1ccc2nc(N[C@@H]3CCCC[C@H]3O)sc2c1 [Example 99, N-((3-((2-(((1R,2R)-2-hydroxycyclohexyl)amino)benzo[d]thiazol-6-yl)methyl)-3H-imidazo[4,5-b]pyridin-6-yl)methyl)acetamide] | > 1500 nM | 
8 | 200 to 1000 nM | ≤ 50 nM | ≤ 100 nM | ≤ 5 nM | C (C>0.02) |  |  |  |  |  | O[C@@H]1Cc2ccccc2[C@H]1Nc1nc2ccc(Cn3cnc4cc(Br)cnc43)cc2o1 [Example 62, (1R,2R)-1-((6-((6-bromo-3H-imidazo[4,5-b]pyridin-3-yl)methyl)benzo[d]oxazol-2-yl)amino)-2,3-dihydro-1H-inden-2-ol] | ≤ 50 nM | 
9 | 1000 to 5000 nM | ≤ 50 nM | 100 to 500 nM | ≤ 5 nM | B (0.01<B≤0.02) |  |  |  |  |  | O[C@@H]1Cc2ccccc2[C@H]1Nc1nc2ccc(Cn3cnc4cccnc43)cc2s1 [Example 46, (1R,2R)-1-((6-((3H-imidazo[4,5-b]pyridin-3-yl)methyl)benzo[d]thiazol-2-yl)amino)-2,3-dihydro-1H-inden-2-ol] | 50 to 400 nM | 
10 | ≤ 200 nM | 50 to 500 nM | ≤ 100 nM | ≤ 5 nM | C (C>0.02) |  |  |  |  |  | COc1cc2ncn(Cc3ccc4nc(N[C@@H]5CCCC[C@H]5O)sc4c3)c2cc1-c1cnn(C)c1 [Example 52, (1R,2R)-2-((6-((5-methoxy-6-(1-methyl-1H-pyrazol-4-yl)-1H-benzo[d]imidazol-1-yl)methyl)benzo[d]thiazol-2-yl)amino)cyclohexanol] | 50 to 400 nM | 
11 |  |  |  |  |  | 200 to 1000 nM | 50 to 500 nM | 500 to 2000 nM | 5 to 20 nM | B (0.01<B≤0.02) | O[C@@H]1CCCC[C@H]1Nc1nc2ccc(Cc3cnc4[nH]c5ccccc5n34)cc2s1 [Example 205, (1R,2R)-2-((6-((9H-benzo[d]imidazo[1,2-a]imidazol-3-yl)methyl)benzo[d]thiazol-2-yl)amino)cyclohexanol] |  | 400 to 1500 nM
12 | 1000 to 5000 nM | ≤ 50 nM | ≤ 100 nM | ≤ 5 nM | B (0.01<B≤0.02) |  |  |  |  |  | ON=C1CCCC[C@H]1Nc1nc2ccc(Cn3cnc4cccnc43)cc2s1 [Example 58, (R)-2-((6-((3H-imidazo[4,5-b]pyridin-3-yl)methyl)benzo[d]thiazol-2-yl)amino)cyclohexanone oxime] | 50 to 400 nM | 
13 |  |  |  |  |  | 1000 to 5000 nM | 50 to 500 nM | 500 to 2000 nM | 5 to 20 nM | A (A≤0.01) | O[C@@H]1CCCC[C@H]1Nc1nc2ccc(Cc3cnc4cc(-n5ccnn5)ccn34)cc2s1 [Example 218, (1R,2R)-2-((6-((7-(1H-1,2,3-triazol-1-yl)imidazo[1,2-a]pyridin-3-yl)methyl)benzo[d]thiazol-2-yl)amino)cyclohexanol] |  | 50 to 400 nM
14 | 200 to 1000 nM | ≤ 50 nM | ≤ 100 nM | 5 to 20 nM | C (C>0.02) |  |  |  |  |  | O[C@@H]1CCCC[C@H]1Nc1nc2ccc(Cn3cnc4cccnc43)cc2o1 [Example 56, (1R,2R)-2-((6-((3H-imidazo[4,5-b]pyridin-3-yl)methyl)benzo[d]oxazol-2-yl)amino)cyclohexanol] | 50 to 400 nM | 
